Test results reported in ChEMBL document CHEMBL5506074, “Discovery and Optimization of Tetrahydroisoquinoline Derivatives To Enhance Lysosome Biogenesis as Preclinical Candidates for the Treatment of Alzheimer's Disease” (J Med Chem, 2024).

Key:
[1] = Induction of TFEB nuclear translocation in human HeLa cells expressing EGFP at 10 uM measured at 6 hrs by fluorescence microscopic analysis; format: functional
[2] = Induction of TFEB nuclear translocation in human HeLa cells expressing EGFP at 30 uM measured at 3 hrs by fluorescence microscopic analysis; format: functional
[3] = Induction of TFEB nuclear translocation in human HeLa cells expressing EGFP at 10 uM measured at 3 hrs by fluorescence microscopic analysis; format: functional
[4] = Induction of TFEB nuclear translocation in human HeLa cells expressing EGFP at 30 uM measured at 6 hrs by fluorescence microscopic analysis; format: functional
[5] = tested on: HeLa; assay: Cytotoxicity against human HeLa cells at 30 uM; format: toxicity, cell-based

Structure (SMILES) | Activity [1] | Activity [2] | Activity [3] | Activity [4] | Activity [5]
CCN1CCc2cc3c(cc2C1CCc1c[nH]c2ccccc12)OCO3 (configuration not stated) | 22% | 65% | 9% | 84% | –
O=CN1CCc2cc3c(cc2C1CCc1c[nH]c2ccccc12)OCO3 (configuration not stated) | 5% | 6% | 6% | 4% | –
COc1cc2c(cc1OC)C(CCc1c[nH]c3ccc(C)cc13)N(CC1CCOCC1)CC2 (configuration not stated) | 53% | 92% | 38% | 91% | –
c1ccc2[nH]c(CCC3c4cc5c(cc4CCN3CC3CCOCC3)OCO5)cc2c1 (configuration not stated) | 5% | 39% | 5% | 39% | –
COc1cc2c(cc1OC)C(CCc1c[nH]c3ccc(Br)cc13)N(CC1CCOCC1)CC2 (configuration not stated) | 63% | 89% | 53% | 94% | –
CCOc1cc2c(cc1OC)CCN(CC1CCOCC1)C2CCc1c[nH]c2ccccc12 (configuration not stated) | 28% | 75% | 17% | 82% | –
Fc1ccc2[nH]cc(CC[C@@H]3c4cc5c(cc4CCN3CC3CCOCC3)OCO5)c2c1 | 33% | 70% | 29% | 82% | –
CC(=O)N1CCc2cc3c(cc2C1CCc1c[nH]c2ccccc12)OCO3 (configuration not stated) | 7% | 8% | 6% | 10% | –
c1ccc2c(CC[C@H]3NCCc4cc5c(cc43)OCO5)c[nH]c2c1 | 23% | 76% | 18% | 77% | –
COc1ccc2[nH]cc(CC[C@H]3c4cc(OC)c(OC)cc4CCN3CC3CCOCC3)c2c1 | 61% | 85% | 44% | 91% | –
Cc1ccc2[nH]cc(CCC3NCCc4cc5c(cc43)OCO5)c2c1 (configuration not stated) | 10% | 45% | 10% | 60% | –
Oc1cc2c(cc1O)C(CCc1c[nH]c3ccccc13)N(CC1CCOCC1)CC2 (configuration not stated) | 10% | 28% | 10% | 60% | Toxic
COc1cc2c(cc1OC)C(CCc1c[nH]c3ccc(F)cc13)N(CC1CCOCC1)CC2 (configuration not stated) | 47% | 88% | 22% | 95% | –
Fc1ccc2[nH]cc(CC[C@H]3c4cc5c(cc4CCN3CC3CCOCC3)OCO5)c2c1 | 60% | 90% | 56% | 98% | –
COc1cc2c(cc1C)C(CCc1c[nH]c3ccccc13)N(CC1CCOCC1)CC2 (configuration not stated) | 30% | 76% | 18% | 81% | –
c1ccc(COc2ccc3[nH]cc(CCC4c5cc6c(cc5CCN4CC4CCOCC4)OCO6)c3c2)cc1 (configuration not stated) | 30% | 75% | 12% | 88% | –
c1ccc2c(CC[C@@H]3NCCc4cc5c(cc43)OCO5)c[nH]c2c1 | 34% | 89% | 30% | 96% | –
c1cnc2[nH]cc(CCC3NCCc4cc5c(cc43)OCO5)c2c1 (configuration not stated) | 30% | 70% | 30% | 70% | Toxic
CC(C)CCN1CCc2cc3c(cc2C1CCc1c[nH]c2ccccc12)OCO3 (configuration not stated) | 20% | 70% | 20% | 80% | –
N#Cc1ccc2[nH]cc(CCC3c4cc5c(cc4CCN3CC3CCOCC3)OCO5)c2c1 (configuration not stated) | 10% | 64% | 10% | 64% | –
CCC(=O)N1CCN(c2ccc(-n3c(=O)ccc4cnc5ccc(-c6cnc7ccccc7c6)cc5c43)cc2C(F)(F)F)CC1 [TORIN1] | 100% | 100% | 100% | 100% | –
OCn1cc(CCC2c3cc4c(cc3CCN2CC2CCOCC2)OCO4)c2ccccc21 (configuration not stated) | 5% | 8% | 5% | 8% | –
c1ccc2c(CCC3c4cc5c(cc4CCN3CC3CCCCC3)OCO5)c[nH]c2c1 (configuration not stated) | 8% | 11% | 7% | 42% | –
c1ccc2c(CCC3c4cc5c(cc4CCN3CC3CCNCC3)OCO5)c[nH]c2c1 (configuration not stated) | 35% | 96% | 22% | 100% | Toxic
c1ccc2c(CCC3c4cc5c(cc4CCN3CC3CCOCC3)OCO5)csc2c1 (configuration not stated) | 5% | 15% | 5% | 20% | –

Structure (SMILES) | Activity [1] | Activity [2] | Activity [3] | Activity [4] | Activity [5]
COc1cc2c(cc1OC)C(CCc1c[nH]c3ccc(O)cc13)N(CC1CCOCC1)CC2 (configuration not stated) | 34% | 85% | 25% | 88% | Toxic
c1ccc2c(CCC3c4cc5c(cc4CCN3CCC3CCOCC3)OCO5)c[nH]c2c1 (configuration not stated) | 5% | 65% | 5% | 80% | –
Fc1ccc2[nH]cc(CCC3NCCc4cc5c(cc43)OCO5)c2c1 (configuration not stated) | 54% | 88% | 36% | 92% | –
c1ccc2c(CCC3c4cc5c(cc4CCN3Cc3ccncc3)OCO5)c[nH]c2c1 (configuration not stated) | 50% | 80% | 45% | 90% | –
COc1ccc2[nH]cc(CC[C@@H]3c4cc(OC)c(OC)cc4CCN3CC3CCOCC3)c2c1 | 37% | 74% | 23% | 80% | –
CC(C)CN1CCc2cc3c(cc2C1CCc1c[nH]c2ccccc12)OCO3 (configuration not stated) | 20% | 74% | 20% | 82% | –
c1ccc2c(CCC3c4cc5c(cc4CCN3Cc3cncnc3)OCO5)c[nH]c2c1 (configuration not stated) | 10% | 20% | 10% | 20% | –
Oc1ccc2[nH]cc(CCC3c4cc5c(cc4CCN3CC3CCOCC3)OCO5)c2c1 (configuration not stated) | 21% | 72% | 15% | 81% | –
c1ccc2c(c1)ccn2CCC1c2cc3c(cc2CCN1CC1CCOCC1)OCO3 (configuration not stated) | 5% | 8% | 5% | 5% | –
COc1cc2c(cc1O)C(CCc1c[nH]c3ccccc13)N(CC1CCOCC1)CC2 (configuration not stated) | 37% | 75% | 22% | 77% | Toxic
Clc1ccc2[nH]cc(CCC3c4cc5c(cc4CCN3CC3CCOCC3)OCO5)c2c1 (configuration not stated) | 20% | 83% | 15% | 92% | –
COc1cc2c(cc1OC)C(CCc1c[nH]c3ccc(Cl)cc13)N(CC1CCOCC1)CC2 (configuration not stated) | 37% | 84% | 27% | 90% | –
CN1CCC(CN2CCc3cc4c(cc3C2CCc2c[nH]c3ccccc23)OCO4)CC1 (configuration not stated) | 40% | 80% | 30% | 81% | Toxic
c1cnc2[nH]cc(CCC3c4cc5c(cc4CCN3CC3CCOCC3)OCO5)c2c1 (configuration not stated) | 10% | 64% | 10% | 64% | –
COCCN1CCc2cc3c(cc2C1CCc1c[nH]c2ccccc12)OCO3 (configuration not stated) | 30% | 70% | 30% | 80% | –
NC(=O)CN1CCc2cc3c(cc2C1CCc1c[nH]c2ccccc12)OCO3 (configuration not stated) | 5% | 20% | 5% | 20% | –
COc1cc2c(cc1F)C(CCc1c[nH]c3ccccc13)N(CC1CCOCC1)CC2 (configuration not stated) | 31% | 70% | 17% | 79% | –
CCCN1CCc2cc3c(cc2C1CCc1c[nH]c2ccccc12)OCO3 (configuration not stated) | 12% | 55% | 11% | 80% | –
Brc1ccc2[nH]cc(CCC3c4cc5c(cc4CCN3CC3CCOCC3)OCO5)c2c1 (configuration not stated) | 30% | 85% | 10% | 95% | –
c1ccc(CN2CCc3cc4c(cc3C2CCc2c[nH]c3ccccc23)OCO4)cc1 (configuration not stated) | 10% | 10% | 10% | 10% | –
COc1ccc2[nH]cc(CCC3c4cc5c(cc4CCN3CC3CCOCC3)OCO5)c2c1 (configuration not stated) | 76% | 88% | 74% | 98% | –
Cc1ccc2[nH]cc(CCC3c4cc5c(cc4CCN3CC3CCOCC3)OCO5)c2c1 (configuration not stated) | 30% | 83% | 20% | 85% | –
COc1cc2c(cc1O)CCN(CC1CCOCC1)C2CCc1c[nH]c2ccccc12 (configuration not stated) | 20% | 70% | 20% | 80% | Toxic
c1ccc2c(CCC3c4cc5c(cc4CCN3CC3CCOCC3)OCO5)c[nH]c2c1 (configuration not stated) | 67% | 86% | 47% | 93% | –
Cn1cc(CCC2c3cc4c(cc3CCN2CC2CCOCC2)OCO4)c2ccccc21 (configuration not stated) | 5% | 26% | 5% | 26% | –
